Reference: ChEMBL document CHEMBL4619770, “Comatulins A-E, Taurine-Conjugated Anthraquinones from the Australian Crinoid Comatula rotalaria” (J Nat Prod, 2020)
Active and inactive are the calls of the source. The calls are words filed in the database; no cut-off is given here.

Assays:
[1] = system: Human immunodeficiency virus 1; assay: Antiviral activity against HIV-1 assessed as reduction in viral replication; format: functional, organism-based
Haemonchus contortus [2] = assay: Anti-helmintic activity against third-stage Haemonchus contortus larvae assessed as induction of eviscerated phenotype at 100 uM measured on day 7 by light microscopic analysis relative to control; format: functional
Haemonchus contortus [3] = assay: Anti-helmintic activity against fourth stage L4 Haemonchus contortus larvae assessed as induction of eviscerated phenotype measured on day 7 by light microscopic method; format: functional, organism-based
Haemonchus contortus [4] = assay: Anti-helmintic activity against fourth stage L4 Haemonchus contortus larvae assessed as induction of changes in internal structure measured on day 7 by light microscopic method; format: functional, organism-based
Haemonchus contortus [5] = assay: Anti-helmintic activity against third-stage Haemonchus contortus larvae assessed as reduction in larval motility after 72 hrs; format: functional, organism-based
Haemonchus contortus [6] = assay: Anti-helmintic activity against third-stage Haemonchus contortus larvae assessed as reduction in development of xL3 stage larvae to L4 stage at low concentration after 7 days; format: functional, organism-based
Haemonchus contortus [7] = assay: Anti-helmintic activity against third-stage Haemonchus contortus larvae assessed as reduction in development of xL3 stage larvae to L4 stage after 7 days; format: functional, organism-based; details: 168 h
Haemonchus contortus [8] = assay: Anti-helmintic activity against third-stage Haemonchus contortus larvae assessed as reduction in development of xL3 stage larvae to L4 stage at 100 uM after 7 days; format: functional, organism-based
[9] = system: Human immunodeficiency virus 1; assay: Antiviral activity against HIV-1 assessed as reduction in viral replication at 0.1 uM; format: functional; set-up: scale not given: the % may be the effect or the level left
[10] = system: Human immunodeficiency virus 1; assay: Antiviral activity against HIV-1 NL4.3 infected in CEM-GXR T cells assessed as reduction in viral replication after 72 hrs by flow cytometry; format: functional, organism-based; details: Human immunodeficiency virus 1, NL4.3, CEM-GXR

Row | SMILES | EC50 [1] [µM] | further results
1 | CCCC(=O)c1c(O)cc(O)c2c1C(=O)c1cc(OC)cc(O)c1C2=O | > 100 | –
2 | COc1cc(O)c2c(c1)C(=O)c1c(C(C)=O)c(O)cc(O)c1C2=O | > 100 | –
3 | CCCc1cc(=O)c2c(OC)c(OC)c3cc(OC)cc(OC)c3c2o1 | > 100 | Activity (Haemonchus contortus [2]): 51%; Activity (Haemonchus contortus [3]): inactive; Activity (Haemonchus contortus [4]): Active; IC50 (Haemonchus contortus [5]): 30 µM; Activity (Haemonchus contortus [6]): inactive; IC50 (Haemonchus contortus [7]): 31 µM; Activity (Haemonchus contortus [8]): Active
4 | COc1cc(OC)c2c(c1)C(=O)c1c(C(C)=O)c(O)cc(O)c1C2=O | > 100 | –
5 | CCCC(=O)c1c(O)cc(O)c2c1C(=O)c1cc(O)cc(O)c1C2=O | > 100 | Activity (Haemonchus contortus [8]): Active
6 | O=C1c2cc(O)cc(O)c2C(=O)c2c(O)cc(O)cc21 | > 100 | –
7 | COc1cc(O)c2c(c1)C(=O)c1c(C(C)=O)c(O)c(CNCCS(=O)(=O)O)c(O)c1C2=O | > 100 | –
8 | CC(C)(C)NC(=O)[C@@H]1CN(Cc2cccnc2)CCN1C[C@@H](O)C[C@@H](Cc1ccccc1)C(=O)N[C@H]1c2ccccc2C[C@H]1O.O [INDINAVIR] | – | Activity [9]: 72%
9 | CCCC(=O)c1c(O)c(CNCCS(=O)(=O)O)c(O)c2c1C(=O)c1cc(OC)cc(O)c1C2=O | > 100 | –

The next lines start with results.

Row | EC50 [1] [µM] | SMILES | further results
10 | > 100 | CCCC(=O)c1c(O)cc(O)c2c1C(=O)c1cc(OC)c(OC)c(O)c1C2=O | –
11 | > 100 | CCCc1cc(=O)c2c(O)c(OC)c3cc(O)cc(OC)c3c2o1 | –
12 | > 100 | CC(=O)c1c(O)cc(O)c2c1C(=O)c1cc(O)cc(O)c1C2=O | –
13 | > 100 | CCCC(=O)c1c(O)cc(O)c2c1C(=O)c1cc(OC)cc(OC)c1C2=O | –
14 | 5.7 | CCCc1cc(=O)c2c(O)cc3cc(O)cc(OC)c3c2o1 [COMAPARVIN] | EC50 [10]: 7.5 µM
